PubChem BioAssay (NCI)
“And” between values parts separate entries of the source, which are not always exact repeats. Equal values may be shown once.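 Results reflect a 48-hour exposure of cells in 96-well plates to compound at five concentrations. At the GI50, growth is halved. The concentration for full growth arrest is given as TGI.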

Tests used:
Assay in all cases: growth of human tumour cells (NCI), 48 h
A549 NSCLC = tested on: A549 NSCLC
HCT-15 colon = tested on: HCT-15 colon
HT29 colon = tested on: HT29 colon
OVCAR-5 ovarian = tested on: OVCAR-5 ovarian
OVCAR-8 ovarian = tested on: OVCAR-8 ovarian
SF-268 CNS = tested on: SF-268 CNS
SK-MEL-5 melanoma = tested on: SK-MEL-5 melanoma
SNB-19 CNS = tested on: SNB-19 CNS
SNB-75 CNS = tested on: SNB-75 CNS
SW-620 colon = tested on: SW-620 colon

Row | Structure (SMILES) | TGI (A549 NSCLC) | TGI (HCT-15 colon) | TGI (HT29 colon) | TGI (OVCAR-5 ovarian) | TGI (OVCAR-8 ovarian) | TGI (SF-268 CNS) | TGI (SK-MEL-5 melanoma) | TGI (SNB-19 CNS) | TGI (SNB-75 CNS) | TGI (SW-620 colon) | GI50 (HCT-15 colon) [µM] | GI50 (HT29 colon) [µM] | GI50 (OVCAR-5 ovarian) [µM] | GI50 (OVCAR-8 ovarian) [µM] | GI50 (SF-268 CNS) [µM] | GI50 (SK-MEL-5 melanoma) [µM] | GI50 (SNB-19 CNS) [µM] | GI50 (SNB-75 CNS) [µM] | GI50 (SW-620 colon) [µM] | GI50 (A549 NSCLC) [µM]
1 | CCn1c(=O)c2c3ccc(O)cc3[nH]c2c2ccc(O)cc21 | > 100 µM | > 100 µM | > 100 µM | > 100 µM | > 100 µM | > 100 µM | > 100 µM | > 100 µM | > 100 µM | > 100 µM |  |  |  |  |  |  |  |  |  | 
2 | CC(=O)OC1(C)CC(C)C(=O)C(C(O)CC2CC(=O)NC(=O)C2)C1 (stereo not given) | 0.936 µM and 3.32 µM | 0.176 µM | 0.133 µM | 0.293 µM and 2.4 µM | 0.965 µM and 0.406 µM | 1.42 µM | 0.147 µM and 0.023 µM | 0.598 µM | 0.0119 µM | 0.129 µM |  |  |  |  |  |  |  |  |  | 
3 | Nc1n[nH]c(N)n1 | > 10000 µM | > 10000 µM | > 10000 µM | > 9810 µM | > 10000 µM | > 10000 µM | > 10000 µM | > 10000 µM | > 10000 µM | > 10000 µM |  |  |  |  |  |  |  |  |  | 
4 | NCCNc1ccc(NCCN)c2c1C(=O)c1c(O)ccc(O)c1C2=O | 0.223 µM and 0.393 µM | 0.391 µM and 1.26 µM | 1.34 µM and 1.23 µM | 1.5 µM and 3.18 µM | 0.466 µM and 0.353 µM | 0.985 µM and 3.24 µM | 1.47 µM and 1.11 µM | 1.14 µM and 0.254 µM | 0.206 µM and 0.429 µM | 1.32 µM and 1.12 µM | 0.0303 | 0.0922 | 0.364 | 0.02 | 0.0222 | 0.0709 | 0.0145 | 0.0227 | 0.0288 | 
5 | Oc1ccccc1CNCc1ccccc1O | > 100 µM | > 100 µM | > 100 µM | > 100 µM | > 100 µM | > 100 µM | > 100 µM | > 100 µM | > 100 µM | > 100 µM |  |  |  |  |  |  |  |  |  | 
6 | CCN(CC)CCCNC(=O)c1ccccc1Nc1c(Cl)cccc1Cl | 31.5 µM | 25.2 µM | 16.5 µM | 24.3 µM | 31.6 µM | 30.2 µM | 10.7 µM | 29.1 µM | 15.4 µM | 30.1 µM |  |  |  |  |  |  |  |  |  | 
7 | CCCCCC1CC(C(C)=O)CN1c1ccc(F)cc1 (stereo not given) | > 100 µM | > 100 µM | > 100 µM | > 100 µM | > 100 µM | > 100 µM | 38.3 µM | > 10 µM | 86.5 µM | > 100 µM |  |  |  |  |  |  |  |  |  | 
8 | O=c1[nH]c(Br)nc2n[nH]nc12 | > 100 µM | > 100 µM | > 100 µM | > 100 µM | > 100 µM | > 100 µM | > 100 µM | > 100 µM | > 100 µM | > 100 µM |  |  |  |  |  |  |  |  |  | 
9 | CCC/C=C/C=C\C(=O)O[C@@H]1[C@@H](C)[C@]2(O)[C@@H]3C=C(C)C(=O)[C@H]3CC(COC(C)=O)=C[C@H]2[C@@H]2C(C)(C)[C@]12OC(C)=O | 97.6 µM | 77.1 µM | 84.6 µM | 119 µM | 116 µM | 87.7 µM | 108 µM | 114 µM | 121 µM | 70 µM |  |  |  |  |  |  |  |  |  | 
10 | CC(=O)C(C(=O)C(=O)Nc1cc(Cl)c(Cl)cc1Cl)c1csc(N)n1 (stereo not given) | > 100 µM | > 100 µM | > 100 µM | > 100 µM | > 100 µM | > 100 µM | > 100 µM | > 100 µM | > 100 µM | > 100 µM |  |  |  |  |  |  |  |  |  | 
11 | O=C(N/N=C/c1cc(Cl)cc(Cl)c1[O-])c1ccccc1O.O=C(N/N=C/c1cc(Cl)cc(Cl)c1[O-])c1ccccc1O.[Cu+2] | 1.65 µM | 1.61 µM | 2.06 µM | 1.92 µM | 1.08 µM | 1.61 µM | 0.966 µM | 2.05 µM | 2.13 µM | 1.97 µM |  |  |  |  |  |  |  |  |  | 0.385
12 | NC1C2C=CC(C2)C1C(=O)O (stereo not given) | > 100 µM | > 100 µM | > 100 µM | > 100 µM | > 100 µM | > 100 µM | > 100 µM | > 100 µM | > 100 µM | > 100 µM |  |  |  |  |  |  |  |  |  | 
